The text below walks through data of ChEMBL document CHEMBL2146452, “Creation of readily accessible and orally active analogue of cortistatin a” (ACS Med Chem Lett, 2012).

Structures are written as SMILES. Activity calls are given as the source filed them. The calls are words filed in the database; no cut-off is given here.

Data set [1] deals with Mus musculus. The experiment in a line: Toxicity in S180 cells xenografted ddY mouse assessed as body weight loss up to 100 mg/kg, po administered QOD for 14 days relative to vehicle-treated control. The arrangement: dose 100 mg/kg, route oral. It counts as organism-based, CCRF S-180. The settings on record: in vivo, 336 h.
The next data set has as its system NHDF. The experiment in a line: Antiproliferative activity against human NHDF cells. It counts as cell-based.
For the next data set, the system named is KB 3-1. The data set is described as follows: Selectivity index, ratio of IC50 for human KB3-1 cells to IC50 for HUVEC.
In data set [2] the test system is Mus musculus. The experiment in a line: Toxicity in S180 cells xenografted ddY mouse assessed as diarrhea up to 100 mg/kg, po administered QOD for 14 days. It counts as organism-based, CCRF S-180. The arrangement: dose 100 mg/kg, route oral. To be noted: in vivo, 336 h.
The subject of data set [3] is Mus musculus. The experiment in a line: Antiangiogenic activity in ddY mouse assessed as inhibition of bFGF-induced capillary formation in matrigel plug measured as hemoglobin level at 5 to 25 mg/kg, po administered QOD for 10 days by Drabkin reagent-based assay. The format is functional, organism-based.
In data set [4] the test system is CCRF S-180. The data set is described as follows: Antitumor activity against mouse S180 cells xenografted in ddY mouse assessed as tumor growth inhibition at >5 mg/kg, po administered QOD for 14 days relative to vehicle-treated control. The format is functional, organism-based.
For another data set, the system named is K562. The data set is described as follows: Antiproliferative activity against human K562 cells. It counts as cell-based.
Data set [5] can be described thus: Antiproliferative activity against mouse Neuro2a cells. The format is cell-based. The settings on record: N2a.
The nature of data set [6]: Antiproliferative activity against human KB3-1 cells after 72 hrs by WST8 assay. The settings on record: KB 3-1, 72 h. The format is cell-based. A general note: Formazan colour is commonly taken as a measure of viable cells.
Data set [7] concerns CCRF S-180. The experiment in a line: Antitumor activity against mouse S180 cells xenografted in ddY mouse assessed as tumor growth inhibition at >25 mg/kg, po administered QOD for 14 days relative to vehicle-treated control. The format is functional.
The next data set has as its system HUVEC. The experiment in a line: Antiproliferative activity against HUVEC after 72 hrs by WST8 assay. The format is functional, cell-based. To be noted: Homo sapiens.
The test system of data set [8] is CCRF S-180. The data set is described as follows: Antitumor activity against mouse S180 cells xenografted in po dosed ddY mouse assessed as tumor growth inhibition. It counts as functional, organism-based.

As for `C[C@]12CCC3=CC4=C(CCCC4=O)O[C@H]3[C@@H]1CC[C@@H]2c1ccc2ccncc2c1`, the Activity result with Mus musculus [1] and in the data set with Mus musculus [2] was “Non-toxic” throughout. Further, the IC50 with NHDF is 4 µM; in the data set on K562, 5 µM; in data set [5] it was 10.5 µM; in data set [6], 10.5 µM; with HUVEC, 0.035 µM. The “Ratio IC50” value with KB 3-1 is over 100. In addition, in the data set on Mus musculus [3], the inhibition result is “Active”. For the same molecule, in the data set with CCRF S-180 [4], the “growth inhibition (GI)” value was “Active”. Besides, the “growth inhibition (GI)” value in the data set on CCRF S-180 [7] is recorded as 90%.

Consider `C[C@]12C=CC3=CC4=C(CCCC4=O)O[C@H]3[C@@H]1CC[C@@H]2c1ccc2ccncc2c1`, for which the IC50 in the data set with NHDF turned out to be 10.5 µM; in the data set on K562, 6 µM; in data set [5], 10.5 µM; in data set [6] it was 10.5 µM; in the data set on HUVEC, 0.1 µM. For the same molecule, the “Ratio IC50” value in the data set on KB 3-1 is over 100. The “growth inhibition (GI)” value in the data set with CCRF S-180 [8] is “Active”.

For `CN(C)c1ccc(/C=C2/CC[C@@]3(C)[C@@H](CC[C@@H]3c3ccc4ccncc4c3)C2)cc1`, the “Ratio IC50” value in the data set on KB 3-1 was determined as 1.5. In addition, the IC50 in data set [6] was determined as 20 µM; in the data set with HUVEC it was 15 µM.

On to `CN(C)C1CC=C(/C=C2/CC[C@@]3(C)[C@@H](CC[C@@H]3c3ccc4ccncc4c3)C2)CC1` (some centres undefined), for which, in the data set with KB 3-1, the “Ratio IC50” value was 9. Further, the results for the IC50 (in data set [6]; with HUVEC) were 18 µM and 2 µM, respectively.

A word on the IC50: it is the concentration at which inhibition is half-maximal.
